Results as given in publication PMC4411102 (PLoS ONE, 2015).

Columns and labels:
HIV-1 VSV = format: cell-based, HIV-1 pseudotyped with VSV-G
HIV-1 IIIB and HIV-1 BaL = assay: Stability in seminal plasma and vaginal fluid (residual anti-HIV activity); format: in vitro ADME; conditions: 35.7 μM, up to 72 hrs
[1] = Circular dichroism spectroscopy; format: physicochemical; conditions: 37°C
Method: CD spectra was performed on a JASCO CD Spectrometer (J-815) at 37 °C using a 5.0-nm bandwidth, 0.1-cm path length, 5-s response time, and a 10-nm/min scanning speed.

gp120 = gp120 (Human immunodeficiency virus type 1 group M subtype B, UniProt P04578); assay: Surface plasmon resonance; format: binding, HIV-1
Method: Briefly, gp120 (20 μg/ml) was immobilized onto carboxymethylated dextran (CM5) surface based sensor chip by amine coupling method according to the manufacturer’s instructions. […] 10mM NaOH and 0.5% SDS were used to regenerate the sensor chip surface after each experimental cycle. The binding response in resonance units (RU) was recorded as a function of time. Non-specific binding was subtracted from the control flow cells without gp120. Binding kinetics was determined with BIA evaluation 4.1 software (BIAcore) using 1:1 Langmuir binding model.

CD4 binding to gp120 = assay: Competitive ELISA, CD4 binding to gp120; design: species or system HIV-1; conditions: gp120 pre-incubated with HbAHP-25 30 min, then CD4 1 hr
Method: 96 well microtiter plate was coated with soluble gp120 (1μg/well) from HIV-1 BaL and HIV-1 IIIB strains for 16 hrs at 4°C. […] Anti-CD4 monoclonal antibody (1:200) was added to the wells, followed by HRP-labeled goat anti-human secondary antibody (1:10000). Rest of the protocol followed was same as described above.

[2] = tested on: PBMCs, VK2/E6E7, TZM-bl, and CEM-GFP cells; assay: MTT cytotoxicity assay; format: cell-based, human
Method: Briefly, PBMCs, VK2/E6E7, TZM-bl, and CEM-GFP cells (5x10^4 for 24 hr assay and 2x10^4 cells for 120 hr assay) were seeded in a 96-well microtiter plate 24 hrs prior to the treatment with peptides. Cells were treated with different concentrations of peptides (4.4–1142.4μM). MTT (10 μl of 1mg/ml) was added to each well, followed by addition of 100 μl of DMSO (Sigma-Aldrich) after 3 hrs. The absorbance was measured at 540nm using ELISA reader (ELX-800, BioTek Instruments Ltd, USA.). Untreated cells were used as medium control and 0.1% Triton X-100 treated cells served as a positive control.

HIV-1 NL4-3 (wt) = format: cell-based
HeLa cells = assay: Flow cytometry, HeLa cells (no gp120); format: binding; conditions: 35.7μM HbAHP-25, 1 hr at RT
Method: (§2) Cells were washed with same buffer twice and binding was evaluated using flow cytometer (BD Accuri C6, USA). The data was acquired and analyzed on BD Accuri software.

HIV-1 IIIB [3] = assay: Anti-HIV activity, p24 antigen assay in H9 cells; format: cell-based; design: key to Anti-HIV activity: +: moderate; ++: significant; NA: No activity; conditions: for Anti-HIV activity (in words): 0.1 MoI HIV-1 IIIB pre-incubated with peptide, H9 cells, p24 on day 4
Method: Supplementary file pone.0124839.s002.tif: S2 Fig Anti-HIV activity of 3 designed peptides. Anti HIV activity of three peptides was determined using H9 cells. H9 cells were infected for 4 hrs with 0.1 MoI of HIV-1 IIIB pre-incubated with various concentrations of peptides. Peptides were added post infection as well. Supernatant was collected on day 4 post infection, and p24 antigen assay was performed. […] (TIF) Click here for additional data file.
Supplementary file pone.0124839.s003.tif: S3 Fig Anti-HIV activity of peptide analogues of peptide 1. After modifying the peptide 1, we performed anti-HIV assay as earlier. HIV-1 IIIB was pre-incubated with peptide analogues for 1 hr and then added to H9 cells for 4 hrs. Levels of p24 levels were determined on day 4 post infection. […] (TIF) Click here for additional data file.

gp120 of HIV-1 BaL = assay: Binding ELISA, gp120 of HIV-1 BaL
Method: (§1) After blocking with 3% bovine serum albumin (BSA) in PBS for 30 min, 100 μl of gp120 (100ng/well) in PBS-0.05% BSA was added to each well and incubated for 2 hrs at 37°C. After three washings with PBS-Tween-20 (PBS-T), cells were incubated with anti-gp120 antibody at 1:200 dilution and then with horse radish peroxidase-(HRP) conjugated secondary goat anti-human antibody (1:10000 dilution) for 1 hr at 37°C. This was followed by incubation with O-phenylenediamine for 20 min. The absorbance was measured at 492 nm on a microplate ELISA reader (ELx-800, Bio-Tek Instruments, USA). Background values obtained in the wells without HbAHP-25 were subtracted from the absorbance values from wells having all other reagents.

[4] = tested on: vaginal/endocervical epithelial cells
gp120 of HIV-1 IIIB = assay: Binding ELISA, gp120 of HIV-1 IIIB; conditions: ELISA
Method: as §1
Supplementary file pone.0124839.s001.tif: S1 Fig Binding of designed peptides to gp120. Peptides that were designed in silico were evaluated for their binding to gp120 of HIV-1 IIIB. Peptides were coated on 96 well microtiter plate for 16 hrs and then incubated with 500ng of gp120 for 2 hrs at 37°C. This was followed by addition of anti-gp120 antibody, and absorbance was read at 492nm. Background absorbance was subtracted from the wells where peptides were not coated. […] (TIF) Click here for additional data file.

TZM-bl cells = assay: Flow cytometry, TZM-bl cells (no gp120); format: binding; conditions: 35.7μM HbAHP-25, 1 hr at RT
Method: as §2

HIV-1 IIIB [5] = assay: Anti-HIV activity in biological fluids, HIV-1 IIIB, luciferase; format: cell-based; conditions: TZM-bl luciferase
[6] = tested on: HL2/3 cells expressing gp120; assay: Flow cytometry, HL2/3 cells expressing gp120; format: binding; conditions: 35.7μM HbAHP-25, 1 hr at RT
Method: as §2

HIV-1 NL4-3 = assay: GFP expression in CEM-GFP cells; conditions: HbAHP-25 prior to infection, day 5 post infection
Method: Supernatants were collected and accumulated p24 levels were determined by sandwich ELISA as per the manufacturer’s protocol (XpressBio, Thurmont, MD, USA). AZT (10nM) was used as positive control for inhibition. For GFP analysis, CEM-GFP cells were observed under fluorescent microscope (Carl Zeiss, Oberkochen, Germany) and photographed using a digital camera (DSC–S75; Sony, Tokyo, Japan). IC50 was defined as the concentration that inhibited 50% of viral activity. The selectivity index (SI) was evaluated as the ratio of CC50 to IC50 (SI = CC50/ IC50).

HIV-1 IIIB and ADA5 = assay: Time-of-addition assay in TZM-bl cells; conditions: 71.40 μM
Method: Luciferase activity was measured at 48 hrs post treatment using Luminometer (ELx-800, Bio-Tek Instruments, USA). VRC01 (0.1 μM) antibody was used as a positive control.

[7] = 2.2–71.40 μM coated, gp120 100ng/well

Structure (SMILES): CC(C)C[C@H](NC(=O)[C@H](CC(C)C)NC(=O)[C@H](CCCCN)NC(=O)[C@H](CS)NC(=O)[C@H](CC(N)=O)NC(=O)[C@@H](NC(=O)[C@@H]1CCCN1C(=O)[C@H](CC(=O)O)NC(=O)[C@@H](NC(=O)[C@H](CCCNC(=N)N)NC(=O)[C@H](CC(C)C)NC(=O)[C@H](CCCCN)NC(=O)[C@H](Cc1c[nH]cn1)NC(=O)[C@H](C)N)C(C)C)C(C)C)C(=O)N[C@@H](CO)C(=O)N[C@@H](Cc1c[nH]cn1)C(=O)N[C@@H](CS)C(=O)N[C@@H](CC(C)C)C(=O)N[C@@H](CC(C)C)C(=O)N[C@H](C(=O)N[C@H](C(=O)N[C@@H](CC(C)C)C(=O)N[C@@H](C)C(=O)N[C@@H](CCCNC(=N)N)C(=O)N[C@@H](Cc1c[nH]cn1)C(N)=O)[C@@H](C)O)C(C)C [HbAHP-25]
- Entry of HIV-1 VSV (HIV-1 VSV): able to enter the cells within one hour even in the presence of HbAHP-25
- Infectivity of HIV-1 VSV (HIV-1 VSV): not affected
- Loss in anti-HIV activity after pre-incubation with seminal plasma (HIV-1 IIIB and HIV-1 BaL; human seminal plasma): did not observe any significant loss
- Loss in anti-HIV activity after pre-incubation with vaginal fluid (HIV-1 IIIB and HIV-1 BaL; human vaginal fluid): did not observe any significant loss
- α-helical content ([1]; 10 μM, PBS pH 7 / sodium acetate pH 4, from ellipticity at 222 nm): about 50%
- Structure at low pH ([1]; pH 4 versus pH 7, 10 μM): no significant change in its structure at low pH
- Rmax (gp120; SPR): 99.7 RU
- Chi2 (gp120; fit to 1:1 Langmuir model): 14.7
- Inhibition of CD4 binding to gp120 (CD4 binding to gp120): significant reduction in the absorbance
- CC50 fold higher than IC50 ([2]; CC50 versus IC50): 5 fold
- Cytotoxicity in words ([2]; MTT): not cytotoxic
- Dose without adverse effect on viability, relative to IC50 ([2]; dose higher than its IC50): 3 fold
- Infectivity of HIV-1 (wt) (HIV-1 NL4-3 (wt)): inhibited
- Shift in fluorescent peak in FL-1A channel (HeLa cells): < 3%
- Anti-HIV activity (in words) (HIV-1 IIIB [3]; listed as analogue-1b): showed better anti-HIV activity than analogue-1a and analogue of peptide-3
- Anti-HIV activity (in words) (HIV-1 IIIB [3]; listed as peptide analogue-1b): significantly enhanced
- Anti-HIV activity (HIV-1 IIIB [3]; class symbols of Table 1, HIV-1 IIIB in H9 cells, p24 (S2, S3 Fig)): ++
- Binding to recombinant gp120 of HIV-1 BaL (gp120 of HIV-1 BaL; [7]): binds to recombinant gp120 of both HIV-1 IIIB and HIV-1 BaL in a dose dependent manner
- Concentration with significant binding to gp120 (gp120 of HIV-1 BaL; HIV-1 BaL gp120): above 8.9 μM
- Disruption of tight junctions [4]: does not cause disruptions of tight junctions
- Induction of inflammation [4]: does not induce any inflammation
- Binding to recombinant gp120 of HIV-1 IIIB (gp120 of HIV-1 IIIB; [7]): binds to recombinant gp120 of both HIV-1 IIIB and HIV-1 BaL in a dose dependent manner
- Concentration with significant binding to gp120 (gp120 of HIV-1 IIIB; HIV-1 IIIB gp120): above 8.9 μM
- Shift in fluorescent peak in FL-1A channel (TZM-bl cells): < 3%
- Change in anti-HIV activity with seminal plasma (HIV-1 IIIB [5]; human seminal plasma): did not observe any significant change
- Change in anti-HIV activity with vaginal fluid (HIV-1 IIIB [5]; human vaginal fluid): did not observe any significant change
- Shift in fluorescent peak in FL-1A channel [6]: 60.10 ± 4.3%
- Effect on lactobacilli (lactobacilli): not inhibitory to lactobacilli
- GFP expression (HIV-1 NL4-3): reduced
- Anti-HIV activity, during infection (HIV-1 IIIB and ADA5; During: peptide and virus added simultaneously): still significant
- Anti-HIV activity, post infection (HIV-1 IIIB and ADA5; Post: peptide 6 hrs after infection): significantly lesser than that shown by the first two groups
- Luciferase activity, pre-incubation (HIV-1 IIIB and ADA5; Pre: virus pre-incubated with peptide): significantly lesser luciferase activity
- Inhibition, all steps (HIV-1 IIIB and ADA5; peptide at all three steps): Maximum inhibition
